Assay results reported in US6540991B2, “Stabilized active materials” (3M Innovative Properties Company, priority 2001, dated 2003).

Experiment: typical duration of codlemone in the intended environment (stabilization of insect pheromone)
Assay type: physicochemical
Conditions: dissipation into the intended environment; codling moth pheromone, nonstabilized vs stabilized with 2,2′-Methylenebis(6-t-butyl-p-cresol)
Source text: Because the insect pheromone can be provided in a stabilized format, a long lasting delivery system may be engineered to provide slow release over a long duration of time. The stabilized format allows for a slow release from a single application without spiking as may be obtainable from multiple applications. “Spiking” as used herein may be triggered by instantaneous or short-term release of the active agents from the shell. Since a mating cycle of a given insect pest may last up to 4-6 weeks in length, the slow release of an insect pheromone may be desirable to provide effective control of insect mating over the duration. Thus, the present invention may be used to control the release rate of insect pheromones thereby effectively controlling and disrupting the mating behavior of the species in a particular intended environment. For example, an insect pheromone for codling moth can be made to steadily dissipate into the intended environment over the duration of a mating cycle for codling moth. A typical duration for a nonstabilized codlemone, the insect pheromone for the codling moth is less than 1 week, as against about 6 weeks for codlemone stabilized according to the present invention.

typical duration: less than 1 week
Structure (SMILES): C/C=C/C=C/CCCCCCCO [nonstabilized codlemone, E,E-8,10 C12 alcohol]
